Data published in PubChem BioAssay AID248 (DTP/NCI, 2004).
“And” between values parts separate entries of the source, which are not always exact repeats. Equal values may be shown once. Inconclusive results and toxic doses are left out. No stated cut-off is given here; in the data, active means T/C of 150% or more; inactive means T/C below 125%. Square brackets hold non-standard residues; d marks the D form. Peptide text beside a SMILES is read from it. * marks the point of attachment. ξ: configuration not given here. Cbz = O=C(OCc1ccccc1)*; ξI = CCC(C)C(N)C(=O)O; OBn = c1ccc(CO*)cc1

System: L1210 leukemia ip in BDF1 mice, survival T/C
Experiment: NCI In Vivo Anticancer Drug Screen. Data for tumor model L1210 Leukemia (intraperitoneal) in B6D2F1 (BDF1) mice
Conditions: endpoint: mean survival time, higher = longer survival
Procedure, shortened: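 Value reflects the ratio of survival in compound-treated mice to survival in vehicle-treated controls, with both groups carrying the same transplanted tumor.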

[1] = dose: 100.0 mg/kg/injection, schedule: Q01DX001 (ip), vehicle: saline
[2] = dose: 200.0 mg/kg/injection, schedule: Q01DX001 (ip), vehicle: saline
[3] = dose: 400.0 mg/kg/injection, schedule: Q01DX001 (ip), vehicle: saline
[4] = dose: 50.0 mg/kg/injection, schedule: Q01DX009 (ip), vehicle: saline
[5] = dose: 100.0 mg/kg/injection, schedule: Q01DX009 (ip), vehicle: saline
[6] = dose: 200.0 mg/kg/injection, schedule: Q01DX009 (ip), vehicle: saline
[7] = dose: 100.0 mg/kg/injection, schedule: Q04DX003 (ip), vehicle: Klucel (hydroxypropylcellulose) (HPC)
[8] = dose: 200.0 mg/kg/injection, schedule: Q04DX003 (ip), vehicle: Klucel (hydroxypropylcellulose) (HPC)
[9] = dose: 100.0 mg/kg/injection, schedule: Q04DX002 (ip), vehicle: Klucel (hydroxypropylcellulose) (HPC)
[10] = dose: 200.0 mg/kg/injection, schedule: Q04DX002 (ip), vehicle: Klucel (hydroxypropylcellulose) (HPC)
[11] = dose: 400.0 mg/kg/injection, schedule: Q04DX002 (ip), vehicle: Klucel (hydroxypropylcellulose) (HPC)
[12] = dose: 100.0 mg/kg/injection, schedule: Q04DX003 (ip), vehicle: saline with Tween-80
[13] = dose: 200.0 mg/kg/injection, schedule: Q04DX003 (ip), vehicle: saline with Tween-80
[14] = dose: 400.0 mg/kg/injection, schedule: Q04DX003 (ip), vehicle: saline with Tween-80
[15] = dose: 100.0 mg/kg/injection, schedule: Q01DX009 (ip), vehicle: saline with Tween-80
[16] = dose: 50.0 mg/kg/injection, schedule: Q01DX009 (ip), vehicle: Klucel (hydroxypropylcellulose) (HPC)
[17] = dose: 100.0 mg/kg/injection, schedule: Q01DX009 (ip), vehicle: Klucel (hydroxypropylcellulose) (HPC)
[18] = dose: 200.0 mg/kg/injection, schedule: Q01DX009 (ip), vehicle: Klucel (hydroxypropylcellulose) (HPC)
[19] = dose: 400.0 mg/kg/injection, schedule: Q04DX003 (ip), vehicle: Klucel (hydroxypropylcellulose) (HPC)
[20] = dose: 50.0 mg/kg/injection, schedule: Q01DX009 (ip), vehicle: saline with Tween-80
[21] = dose: 100.0 mg/kg/injection, schedule: Q01DX001 (ip), vehicle: carboxymethylcellulose (CMC)
[22] = dose: 200.0 mg/kg/injection, schedule: Q01DX001 (ip), vehicle: carboxymethylcellulose (CMC)
[23] = dose: 400.0 mg/kg/injection, schedule: Q01DX001 (ip), vehicle: carboxymethylcellulose (CMC)
[24] = dose: 100.0 mg/kg/injection, schedule: Q01DX001 (ip), vehicle: Klucel (hydroxypropylcellulose) (HPC)
[25] = dose: 200.0 mg/kg/injection, schedule: Q01DX001 (ip), vehicle: Klucel (hydroxypropylcellulose) (HPC)
[26] = dose: 100.0 mg/kg/injection, schedule: Q04DX002 (ip), vehicle: saline
[27] = dose: 200.0 mg/kg/injection, schedule: Q04DX002 (ip), vehicle: saline
[28] = dose: 400.0 mg/kg/injection, schedule: Q01DX009 (ip), vehicle: Klucel (hydroxypropylcellulose) (HPC)

Measured: T/C

O=C(Nc1ccc(Br)cc1)c1ccc(C(=O)Nc2ccc(Br)cc2)cc1
inactive: [1] 94 % of control | [2] 100 % of control | [3] 94 % of control

CC(C)(CO)NC=O (tested in a mixture with another compound)
inactive: [4] 107 % of control | [5] 113 % of control | [6] 113 % of control

CCCCOCCOCCOc1ccc(C(=O)O)cc1
inactive: dose: 50.0 mg/kg/injection, schedule: Q01DX009 (ip), vehicle: acetone 102 % of control | dose: 100.0 mg/kg/injection, schedule: Q01DX009 (ip), vehicle: acetone 97 % of control | dose: 100.0 mg/kg/injection, schedule: Q04DX003 (ip), vehicle: saline 94 % of control | dose: 200.0 mg/kg/injection, schedule: Q01DX009 (ip), vehicle: acetone 102 % of control | dose: 200.0 mg/kg/injection, schedule: Q04DX003 (ip), vehicle: saline 94 % of control

CCC1CCC(Cc2ccncc2)CC1 (centres undefined)
inactive: [7] 98 % of control | [8] 92 % of control

CC1CCCC1C(=Nc1ccc(Cl)c(Cl)c1)N1CCCCC1 (centres undefined)
inactive: [1] 105 % of control | [2] 100 % of control | [3] 102 % of control

CCCCCCCCCCCCN=C(N)N/C(N)=N/S(=O)(=O)c1ccc(OCCCCC)cc1
inactive: [9] 100 % of control | [10] 95 % of control | [11] 95 % of control

CN(C)CCCNC(CC#N)CCC#N (centres undefined)
inactive: [4] 91 % of control | [5] 92 % of control | [6] 92 % of control

O=C(O)c1cccc2cccc(C(=O)c3cccs3)c12
inactive: [12] 91 % of control | [13] 98 % of control | [14] 91 % of control

COc1ccc(Cl)cc1NC(=O)c1ccc(Cl)cc1Cl
inactive: [15] 96 % of control | [12] 98 % of control | dose: 200.0 mg/kg/injection, schedule: Q01DX009 (ip), vehicle: saline with Tween-80 94 % of control | [13] 93 % of control | dose: 400.0 mg/kg/injection, schedule: Q01DX009 (ip), vehicle: saline with Tween-80 102 % of control | [14] 97 % of control

CC(CO)CCCC(C)C1CCC2C3CC=C4CC(O)CCC4(C)C3CCC12C (centres undefined)
inactive: dose: 100.0 mg/kg/injection, schedule: Q01DX001 (ip), vehicle: saline with Tween-80 94 % of control | dose: 200.0 mg/kg/injection, schedule: Q01DX001 (ip), vehicle: saline with Tween-80 90 % of control | dose: 400.0 mg/kg/injection, schedule: Q01DX001 (ip), vehicle: saline with Tween-80 100 % of control

CC(=O)Nc1ccc2ccc3ccc4ccccc4c3c2c1
inactive: dose: 3.12 mg/kg/injection, schedule: Q04DX002 (ip), vehicle: saline with Tween-80 111 % of control | dose: 6.25 mg/kg/injection, schedule: Q04DX002 (ip), vehicle: saline with Tween-80 111 % of control | dose: 12.5 mg/kg/injection, schedule: Q04DX002 (ip), vehicle: saline with Tween-80 108 % of control | dose: 25.0 mg/kg/injection, schedule: Q04DX002 (ip), vehicle: saline with Tween-80 103 % of control | dose: 50.0 mg/kg/injection, schedule: Q04DX002 (ip), vehicle: saline with Tween-80 102 % of control

CC1(C(N)=O)CCCC2(C)c3ccccc3CCC12 (centres undefined)
inactive: [12] 92 % of control | [13] 95 % of control | [14] 94 % of control

CCCCSc1cc(C)nc(SCCCC)n1
inactive: [16] 101 % of control | [17] 101 % of control | [18] 101 % of control

N/C(=N\O)c1c(N)ncn1C1OC(CO)C(O)C1O (centres undefined)
inactive: dose: 100.0 mg/kg/injection, schedule: Q01DX005 (ip), vehicle: saline 97 % of control | dose: 200.0 mg/kg/injection, schedule: Q01DX005 (ip), vehicle: saline 100 % of control

Oc1ccc(C(c2ccc(O)c(Cl)c2)c2ccccn2)cc1Cl
inactive: [7] 102 % of control | [8] 98 % of control | [19] 100 % of control

COc1ccc(CNCC(=O)OCc2ccccc2)cc1
inactive: [20] 91 % of control | [15] 100 % of control | [12] 102 % of control | [13] 101 % of control

C/C(=C/C=C(/C)C(=O)O)C(=O)O
inactive: [21] 95 % of control | [7] 101 % of control | [22] 95 % of control | [8] 115 % of control | [23] 98 % of control | [19] 93 % of control

O=C1OC(=O)C2=C1C1C3C=CCC3C2N2C=CC=CC12 (centres undefined)
inactive: [16] 96 % of control | [17] 103 % of control | [18] 103 % of control

O=C(O)CCCCCCCCCCCCCCC(=O)O
inactive: [9] 93 % of control and 97 % of control | [10] 101 % of control | [11] 93 % of control and 101 % of control

CC1(C)OC(=O)C(C(=O)O)C1c1ccccc1 (centres undefined)
inactive: [1] 97 % of control | [2] 94 % of control

CCCCCCCCCCCCSc1ccc2ccccc2c1
inactive: [24] 87 % of control | [25] 92 % of control

CCC(C)C(NC(=O)CNC(=O)OCc1ccccc1)C(=O)OCc1ccccc1 (stereo not drawn) (Cbz-Gly-[ξI]-OBn)
inactive: dose: 100.0 mg/kg/injection, schedule: Q04DX003 (ip), vehicle: other 104 % of control | dose: 200.0 mg/kg/injection, schedule: Q04DX003 (ip), vehicle: other 98 % of control | dose: 400.0 mg/kg/injection, schedule: Q04DX003 (ip), vehicle: other 103 % of control

C/C(CN(C)C)=N\O
inactive: [26] 101 % of control | [27] 99 % of control | dose: 400.0 mg/kg/injection, schedule: Q04DX002 (ip), vehicle: saline 92 % of control

Cc1ccc(NC(=O)c2cccc(F)c2)cc1Cl
inactive: [24] 97 % of control | [17] 94 % of control and 92 % of control | [9] 101 % of control and 104 % of control | [25] 100 % of control | [18] 105 % of control and 92 % of control | [10] 96 % of control and 104 % of control | dose: 400.0 mg/kg/injection, schedule: Q01DX001 (ip), vehicle: Klucel (hydroxypropylcellulose) (HPC) 100 % of control | [28] 97 % of control and 92 % of control | [11] 104 % of control and 109 % of control

Cc1ccc(NC(=O)c2cccc(C(=O)Nc3ccc(C)c(C)c3)c2)cc1C
inactive: [17] 94 % of control | [7] 91 % of control | [18] 104 % of control | [8] 97 % of control | [28] 94 % of control | [19] 91 % of control

O=C(C[n+]1ccccc1)N/N=C/c1ccc(Cl)cc1
inactive: dose: 25.0 mg/kg/injection, schedule: Q01DX009 (ip), vehicle: saline with Tween-80 98 % of control | [20] 96 % of control | [15] 100 % of control

O=[N+]([O-])c1ccc(/C=C/c2ccccc2)cc1
inactive: [17] 97 % of control | [7] 109 % of control | [18] 95 % of control | [8] 98 % of control | [28] 96 % of control | [19] 105 % of control

COC(=O)c1cccc2cnccc12
inactive: [7] 107 % of control | [8] 110 % of control | [19] 96 % of control

c1ccc(Sc2cc(Sc3ccccc3)c3cccccc2-3)cc1
inactive: [21] 96 % of control | [22] 100 % of control | [23] 87 % of control

CCCc1nnnn1C12CC3CC(CC(C3)C1)C2
inactive: [1] 102 % of control | [2] 100 % of control | [3] 93 % of control

CCCCCCC#CC(=O)OCC
inactive: [26] 89 % of control | [27] 104 % of control

Cc1c(C(=O)c2ccc3c(c2)OCO3)ccc2c1OCO2
inactive: [21] 100 % of control | [22] 100 % of control | [23] 96 % of control
